Measurements as given in patent US7141564B2, “Nitrogen-containing bicyclic heterocycles for use as antibacterials” (priority 2001, dated 2006).
Where a name gives a salt, the structure may show the parent alone.

System: S. aureus WCUH29, S. pneumoniae 1629, H. influenzae ATCC 51907, M. catarrhalis Ravisio
Assay: MIC of further test compounds against an alternative selection of organisms
Assay type: cell-based
Conditions: versus all these organisms (alternative panel of 4 strains)
Method: The MIC […] of further test compounds against an alternative selection of organisms was determined: S. aureus WCUH29, S. pneumoniae 1629, H. influenzae ATCC 51907, M. catarrhalis Ravisio.

Row | SMILES | MIC
1 | COCCOc1ccc2nccc(NC(=O)[C@]3(O)CC[C@@H](NCc4ccc5c(n4)NC(=O)CS5)CC3)c2n1 [Example 313, 1-Hydroxy-t-4-[(3-oxo-3,4-dihydro-2H-pyrido[3,2-b][1,4]thiazin-6-ylmethyl)-amino]-r-cyclohexanecarboxylic acid [6-(2-methoxy-ethoxy)-[1,5]naphthyridin-4-yl]-amide dihydrochloride] | ≤ 16 µg/mL
2 | CCc1cc2c(nc1CN[C@H]1CC[C@](O)(C(=O)Nc3ccnc4ccc(OC)nc34)CC1)NC(=O)CS2 [Example 311, 1-Hydroxy-t-4-[(7-ethyl-3-oxo-3,4-dihydro-2H-pyrido[3,2-b][1,4]thiazin-6-ylmethyl)-amino]-r-cyclohexanecarboxylic acid (6-methoxy-[1,5]naphthyridin-4-yl)-amide dihydrochloride] | ≤ 16 µg/mL
